The source of these data is patent US9023789B2, “Amylin analogs and pharmaceutical compositions thereof” (Novo Nordisk A/S, priority 2012, dated 2015).

Each structure is given as a SMILES string. Values after ≈ are worked out from the molar mass of the structure shown. Like-named read-outs stand apart in the source and are kept apart here. Numbered stars: 1 amine (or outer) side, 2 acyl side, 3 side chain; on linkers, the order of the positions; unused ones are H or OH. Bridge positions count the residues as written; N and C are the ends. Side chains are listed from the residue outwards. Peptide text beside a SMILES is read from it. * marks the point of attachment. C20 diacid = O=C(O)CCCCCCCCCCCCCCCCCCC(=O)*; γGlu = O=C(O)[C@H](CCC(=O)[*:2])N[*:1] Bounds are passed on as bounds.

The term EC50 denotes the concentration giving half of the maximal effect. The term IC50 denotes the concentration that inhibits the measured activity by half.

The target in data set [1] is T1, human amylin 3(a) receptor (human calcitonin receptor + RAMP-3) in BHK570 cells (Homo sapiens, UniProt O60896+P30988).
T1 construct: expressed in transfected cells
The data set is described as follows: ASSAY (II)a functional assay, human amylin receptor (CRE luciferase). It is filed as cell-based. As to conditions: for EC50: human amylin receptor functional potency, assay (II), read-out: hAmylin-R funct. EC50. The essentials: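 Functional agonism was measured by CRE-luciferase reporter luminescence in BHK cells bearing calcitonin receptor, or calcitonin receptor plus RAMP-3 as the amylin 3(a) receptor. Stimulation lasted 3 hours at 37° C.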

The target of data set [2] is T2, human amylin receptor (membranes from Amylin 3(a)/CRE-luc cells) (Homo sapiens, UniProt O60896+P30988).
T2 construct: expressed in transfected cells
T2 sequence (P30988 25-474): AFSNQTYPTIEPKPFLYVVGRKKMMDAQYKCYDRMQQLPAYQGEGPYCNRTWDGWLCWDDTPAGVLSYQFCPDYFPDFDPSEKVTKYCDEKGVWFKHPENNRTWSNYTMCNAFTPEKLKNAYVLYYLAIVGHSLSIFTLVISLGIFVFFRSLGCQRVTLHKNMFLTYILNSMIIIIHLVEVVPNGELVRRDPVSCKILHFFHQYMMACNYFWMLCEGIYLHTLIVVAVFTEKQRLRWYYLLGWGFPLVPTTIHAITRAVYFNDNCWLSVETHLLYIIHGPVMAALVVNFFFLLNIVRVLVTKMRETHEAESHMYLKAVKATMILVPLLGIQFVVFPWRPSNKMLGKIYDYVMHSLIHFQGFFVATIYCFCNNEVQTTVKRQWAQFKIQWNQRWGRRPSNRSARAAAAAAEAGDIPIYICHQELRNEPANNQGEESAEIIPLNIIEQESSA
T2 sequence (O60896 24-148 partner): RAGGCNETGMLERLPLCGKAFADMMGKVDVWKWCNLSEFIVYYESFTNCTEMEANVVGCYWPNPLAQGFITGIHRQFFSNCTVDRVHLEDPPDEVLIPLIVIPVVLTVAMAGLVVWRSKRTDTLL
The data set is described as follows: ASSAY (V) binding to the human amylin receptor (SPA, 125I-rat amylin).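 On all read-outs here: competition binding of cell membranes (35 ng/µL) mixed with SPA beads in 384-well plates at 40 µL total volume, read by scintillation counting.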 As to conditions: for IC50: Table 4, read-out: hAmylin-R bind IC50.

The nature of data set [3]: ASSAY (IV) determination of solubility. It is filed as physicochemical. In a few lines:
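UPLC read-out of polypeptide concentration after centrifugation. Samples: aqueous polypeptide stock ([…]) + 100 mM buffer 1:1, glycylglycine pH 3.0–5.0 or bistrispropane pH 6.0–8.0; 18 h, RT.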

Where [4] appears, read: hCTR funct. EC50 divided by hAmylin-R funct. EC50.
Setting [5] is: hCTR funct. EC50 over hAmylin-R funct. EC50.
Where [6] appears, read: human functional selectivity: hCTR funct. EC50 / hAmylin-R funct. EC50.
The mark [7] stands for this setting: Table 5, selectivity, hCTR bind IC50 / hAmylin-R bind IC50.
[8] abbreviates: Table 5a, selectivity, hCTR bind IC50 / hAmylin-R bind IC50.
The mark [9] stands for this setting: Table 5b, selectivity, hCTR bind IC50 / hAmylin-R bind IC50.
Setting [10] is: Table 5c, selectivity, hCTR bind IC50 / hAmylin-R bind IC50.
The mark [11] stands for this setting: Table 7, human binding selectivity, included for comparison.
[12] abbreviates: Table 7a (preferred compounds), human binding selectivity, included for comparison.
The mark [13] stands for this setting: ratio of human calcitonin receptor binding IC50 to human amylin receptor binding IC50.
Where [14] appears, read: bistrispropane buffer, pH 6.5, read-out: Solubility pH 6.5 Concentration.
The mark [15] stands for this setting: bistrispropane buffer, pH 7.5, read-out: Solubility pH 7.5 Concentration.
[16] abbreviates: bistrispropane buffer, pH 6.0, read-out: Solubility pH 6.0 Concentration.
Where [17] appears, read: bistrispropane buffer, pH 7.0, read-out: Solubility pH 7.0 Concentration.
The mark [18] stands for this setting: bistrispropane buffer, pH 8.0, read-out: Solubility pH 8.0 Concentration.
[19] abbreviates: glycylglycine buffer, pH 3.0, read-out: Solubility pH 3.0 Concentration.
[20] abbreviates: glycylglycine buffer, pH 4.0, read-out: Solubility pH 4.0 Concentration.
The mark [21] stands for this setting: glycylglycine buffer, pH 5.0, read-out: Solubility pH 5.0 Concentration.

On to `CC[C@H](C)[C@H](NC(=O)[C@H](C)NC(=O)CNC(=O)[C@H](Cc1ccccc1)NC(=O)[C@H](CC(N)=O)NC(=O)[C@@H]1CCCN1C(=O)[C@H](CO)NC(=O)[C@H](CO)NC(=O)[C@H](Cc1c[nH]cn1)NC(=O)[C@H](CCCNC(=N)N)NC(=O)[C@H](CC(C)C)NC(=O)[C@H](Cc1ccccc1)NC(=O)[C@H](CC(N)=O)NC(=O)[C@H](C)NC(=O)[C@H](CC(C)C)NC(=O)[C@H](CCCNC(=N)N)NC(=O)[C@H](CCC(N)=O)NC(=O)[C@@H](NC(=O)[C@H](C)NC(=O)[C@@H]1CSSC[C@H](NC(=O)[C@@H](N)CCCCNC(=O)COCCOCCNC(=O)CC[C@H](NC(=O)CCCCCCCCCCCCCCCCCCC(=O)O)C(=O)O)C(=O)N[C@@H](CC(N)=O)C(=O)N[C@@H]([C@@H](C)O)C(=O)N[C@@H](C)C(=O)N[C@@H]([C@@H](C)O)C(=O)N1)[C@@H](C)O)C(=O)N1CCC[C@H]1C(=O)N[C@@H](CO)C(=O)N[C@@H](CO)C(=O)N[C@H](C(=O)N[C@@H](CC(N)=O)C(=O)N[C@H](C(=O)NCC(=O)N1CCC[C@H]1C(=O)N[C@@H](CC(N)=O)C(=O)N[C@H](C(=O)N[C@@H](Cc1ccc(O)cc1)C(N)=O)[C@@H](C)O)C(C)C)[C@@H](C)O` [Example 50], for which the “Ratio hCT/hAmylin funct.” value in data set [1] (setting [4]), in data set [1] (setting [5]) and in data set [1] (setting [6]) was 17.4 each time. In addition, the EC50 in data set [1] came to 0.038 nM. Besides, in data set [2], the half-inhibitory concentration (IC50) is 0.038 nM. The “Ratio hCT/hAmylin binding” value in data set [2] (setting [7]), in data set [2] (setting [8]), in data set [2] (setting [9]), in data set [2] (setting [10]), in data set [2] (setting [11]) and in data set [2] (setting [12]) was 36.0 each time. For the same compound, in data set [2] (setting [13]), the “Ratio hCT/hAmylin binding” value was 36.0. In addition, the solubility at 18 h in data set [3] (setting [14]), in data set [3] (setting [15]), in data set [3] (setting [16]), in data set [3] (setting [17]), in data set [3] (setting [18]) and in data set [3] (setting [19]) was at least 200 µM throughout. The solubility at 18 h in data set [3] (setting [20]) and in data set [3] (setting [21]) was at least 200 µM throughout.

As for `CC(C)C[C@H](NC(=O)[C@H](CCCNC(=N)N)NC(=O)[C@H](CCC(N)=O)NC(=O)[C@@H](NC(=O)[C@H](C)NC(=O)[C@@H]1CSSC[C@H](NC(=O)[C@@H](N)CCCCNC(=O)CC[C@H](NC(=O)CC[C@H](NC(=O)CCCCCCCCCCCCCCCCCCC(=O)O)C(=O)O)C(=O)O)C(=O)N[C@@H](CC(N)=O)C(=O)N[C@@H]([C@@H](C)O)C(=O)N[C@@H](C)C(=O)N[C@@H]([C@@H](C)O)C(=O)N1)[C@@H](C)O)C(=O)N[C@@H](C)C(=O)N[C@@H](CC(=O)O)C(=O)N[C@@H](Cc1ccccc1)C(=O)N[C@@H](CC(C)C)C(=O)N[C@@H](CCCNC(=N)N)C(=O)N[C@@H](Cc1c[nH]cn1)C(=O)N[C@@H](CO)C(=O)N[C@@H](CO)C(=O)N1CCC[C@H]1C(=O)N[C@@H](CC(N)=O)C(=O)N[C@@H](Cc1ccccc1)C(=O)NCC(=O)N[C@@H](C)C(=O)N1CCC[C@H]1C(=O)N[C@@H](CC(C)C)C(=O)N[C@@H](CO)C(=O)N[C@@H](CO)C(=O)N[C@H](C(=O)N[C@@H](CC(N)=O)C(=O)N[C@H](C(=O)NCC(=O)N[C@@H](CO)C(=O)N[C@@H](CC(=O)O)C(=O)N[C@H](C(=O)N[C@@H](Cc1ccc(O)cc1)C(N)=O)[C@@H](C)O)C(C)C)[C@@H](C)O` [Example 1] (H-K([γGlu-γGlu-C20 diacid])CNTATCATQRLADFLRHSSPNFGAPLSSTNVGSDTY-NH2; disulfide 2-7), the “Ratio hCT/hAmylin funct.” value in data set [1] (setting [5]) and in data set [1] (setting [6]) was 12.0 throughout. Further, the EC50 in data set [1] came to 0.224 nM. The IC50 in data set [2] turned out to be 1.18 nM. Besides, the “Ratio hCT/hAmylin binding” value in data set [2] (setting [7]), in data set [2] (setting [8]), in data set [2] (setting [9]), in data set [2] (setting [10]), in data set [2] (setting [11]) and in data set [2] (setting [12]) was 27.6 each time. In addition, the “Ratio hCT/hAmylin binding” value in data set [2] (setting [13]) was found to be 27.6. Moreover, the solubility at 18 h in data set [3] (setting [14]), in data set [3] (setting [15]), in data set [3] (setting [16]), in data set [3] (setting [17]), in data set [3] (setting [18]) and in data set [3] (setting [19]) was at least 200 µM throughout. The solubility at 18 h in data set [3] (setting [20]) was at least 200 µM; in data set [3] (setting [21]) it was 172 µM (≈ 776 µg/mL).

`CC[C@H](C)[C@H](NC(=O)[C@H](C)NC(=O)CNC(=O)[C@H](Cc1ccccc1)NC(=O)[C@H](CC(N)=O)NC(=O)[C@@H]1CCCN1C(=O)[C@H](CO)NC(=O)[C@H](CO)NC(=O)[C@H](Cc1c[nH]cn1)NC(=O)[C@H](CCCNC(=N)N)NC(=O)[C@H](CC(C)C)NC(=O)[C@H](Cc1ccccc1)NC(=O)[C@H](CC(N)=O)NC(=O)[C@H](C)NC(=O)[C@H](CC(C)C)NC(=O)[C@H](CCCNC(=N)N)NC(=O)[C@H](CCC(N)=O)NC(=O)[C@@H](NC(=O)[C@H](C)NC(=O)[C@@H]1CSSC[C@H](NC(=O)[C@@H](N)CCCCNC(=O)COCCOCCNC(=O)CCCCCCCCCCCCCCCCCCC(=O)O)C(=O)N[C@@H](CC(N)=O)C(=O)N[C@@H]([C@@H](C)O)C(=O)N[C@@H](C)C(=O)N[C@@H]([C@@H](C)O)C(=O)N1)[C@@H](C)O)C(=O)N1CCC[C@H]1C(=O)N[C@@H](CO)C(=O)N[C@@H](CO)C(=O)N[C@H](C(=O)N[C@@H](CC(N)=O)C(=O)N[C@H](C(=O)NCC(=O)N[C@@H](Cc1c[nH]cn1)C(=O)N[C@@H](CC(N)=O)C(=O)N[C@H](C(=O)N[C@@H](Cc1ccc(O)cc1)C(N)=O)[C@@H](C)O)C(C)C)[C@@H](C)O` [Example 91]: the “Ratio hCT/hAmylin funct.” value in data set [1] (setting [4]), in data set [1] (setting [5]) and in data set [1] (setting [6]) was 36.9 in each case. In addition, the “Ratio hCT/hAmylin binding” value in data set [2] (setting [7]), in data set [2] (setting [8]), in data set [2] (setting [9]), in data set [2] (setting [10]), in data set [2] (setting [11]) and in data set [2] (setting [12]) was 100.8 each time. Further, the “Ratio hCT/hAmylin binding” value in data set [2] (setting [13]) is reported as 100.8. The solubility at 18 h in data set [3] (setting [14]), in data set [3] (setting [15]), in data set [3] (setting [16]), in data set [3] (setting [17]), in data set [3] (setting [18]) and in data set [3] (setting [19]) was at least 200 µM in each case. The solubility at 18 h in data set [3] (setting [20]) and in data set [3] (setting [21]) was at least 200 µM throughout.
